Laboratory results from patent US9688661B2, “Substituted pyrroles active as kinases inhibitors” (NERVIANO MEDICAL SCIENCES S.R.L., priority 2012, dated 2017).

Assays:
JAK1 kinase domain = JAK1 kinase domain (Homo sapiens (Human), UniProt P23458); experiment: Biochemical assay for inhibitors of JAK kinase activity, JAK1; details: preactivated JAK1 kinase domain 2.5 nM, 100 μM ATP
JAK2 kinase domain = JAK2 kinase domain (Homo sapiens (Human), UniProt O60674); experiment: Biochemical assay for inhibitors of JAK kinase activity, JAK2; details: JAK2 kinase domain 1 nM, 60 μM ATP
[1] = system: JAK2 independent human chronic myelogenous leukaemia cell line K562; experiment: Cell proliferation assay, K562; format: cell-based; details: K562 cells, 72 hours, CellTiter-Glo, read-out: IC50 K-562
[2] = system: JAK2 dependent human megakaryoblastic leukemia cell line SET-2; experiment: Cell proliferation assay, SET-2; format: cell-based; details: SET-2 cells, 72 hours, CellTiter-Glo
[3] = system: IL-2 dependent human T lymphoma cell line DERL-7; experiment: Cell proliferation assay, DERL-7; format: cell-based; details: DERL7; DERL-7 cells, 20 ng/ml human IL-2, 72 hours, CellTiter-Glo
Description: the JAK2 dependent human megakaryoblastic leukemia cell line SET-2 (DSMZ, Braunschweig GERMANY), and JAK2 independent human chronic myelogenous leukaemia cell line K562 (ECACC, Wiltshire, UK) were cultured in RPMI-1640 medium-Glutamax (Gibco BRL, Gaithesburg, Md., USA), supplemented with 10% fetal bovine serum (FBS) at 37° C. and 5% CO2. The IL-2 dependent human T lymphoma cell line DERL-7 (DSMZ, Braunschweig GERMANY) was used to test the activity of compounds in cells on JAK1/JAK3 kinases activated by IL-2. The DERL-7 cell lines were cultured in RPMI-1640 medium-Glutamax (Gibco BRL, Gaithesburg, Md., USA), supplemented with 20% FBS and 20 ng/ml of human IL-2 (Sigma-Aldrich, St. Louis, Mo., USA).
Approximately 5×10^3 cells were plated into 384 microtiter plate wells in 50 μL of growth media with different concentrations of inhibitors. The cells were incubated at 37° C. and 5% CO2 for 72 hours, than the plates were processed using CellTiter-Glo assay (Promega, Madison, Wis., USA) following the manufacturer's instruction. Briefly 25 μL/well reagent solution are added to each wells and after 5 minutes shacking micro-plates are read by Envision luminometer (PerkinElmer, Waltham, Mass., USA).
(§1) Data are analyzed by Symix Assay Explorer software (Symix Technologies Inc.) that provides sigmoidal fitting algorithm of the 8 points dilutions curves for IC50 determination.

TYK2 kinase domain = TYK2 kinase domain (Homo sapiens (Human), UniProt P29597); experiment: Biochemical assay for inhibitors of JAK kinase activity, TYK2; details: TYK2 kinase domain 3 nM, 31 μM ATP
Description: Specific JAK2, JAK1 or JAK3 peptide substrates are trans-phosphorylated by JAK kinases in the presence of ATP traced with 33P-γ-ATP. At the end of the phosphorylation reaction, the unreacted ATP, cold and radioactive, is captured by an excess of dowex ion exchange resin that eventually settles by gravity to the bottom of the reaction plate. The supernatant is subsequently withdrawn and transferred into a counting plate that is then evaluated by β-counting.
500 g of wet resin (SIGMA, custom prepared resin DOWEX 1×8 200-400 mesh, 2.5 Kg) are weighed out and diluted 2 to 1 in 150 mM sodium formate, pH 3.00. The resin is allowed to settle down overnight and then the supernatant is discarded. After three washes as above over a couple of days, the resin is allowed to settle and two volumes (with respect to the resin volume) of 150 mM sodium formate buffer are added.
Kinase buffer was composed of 50 mM HEPES pH 7.5 containing 10 mM MgCl2, 2.5 mM DTT, 10 μM Na3VO4 and 0.2 mg/mL BSA.
The peptidic substrate was purchased from American Peptide Company (Sunnyvale, Calif.).
as §1

Chain of TYK2 kinase domain (P29597 833-1187): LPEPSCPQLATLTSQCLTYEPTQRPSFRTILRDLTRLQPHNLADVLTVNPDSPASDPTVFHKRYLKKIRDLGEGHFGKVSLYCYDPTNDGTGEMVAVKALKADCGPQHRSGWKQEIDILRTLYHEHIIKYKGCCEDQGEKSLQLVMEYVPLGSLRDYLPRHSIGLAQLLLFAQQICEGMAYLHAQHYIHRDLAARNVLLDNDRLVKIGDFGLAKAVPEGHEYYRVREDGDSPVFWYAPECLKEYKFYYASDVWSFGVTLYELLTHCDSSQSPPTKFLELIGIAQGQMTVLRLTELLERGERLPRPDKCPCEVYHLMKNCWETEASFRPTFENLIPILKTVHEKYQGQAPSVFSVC
Chain of JAK1 kinase domain (P23458 861-1152): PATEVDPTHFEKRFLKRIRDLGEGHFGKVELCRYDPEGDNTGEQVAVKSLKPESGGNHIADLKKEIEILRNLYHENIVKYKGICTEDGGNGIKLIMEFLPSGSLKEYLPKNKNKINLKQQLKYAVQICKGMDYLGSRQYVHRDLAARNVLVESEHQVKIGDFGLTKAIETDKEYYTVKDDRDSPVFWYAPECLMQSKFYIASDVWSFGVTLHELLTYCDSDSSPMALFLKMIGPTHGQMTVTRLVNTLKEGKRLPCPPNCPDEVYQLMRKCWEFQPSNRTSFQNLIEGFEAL
Chain of JAK2 kinase domain (O60674 849-1124): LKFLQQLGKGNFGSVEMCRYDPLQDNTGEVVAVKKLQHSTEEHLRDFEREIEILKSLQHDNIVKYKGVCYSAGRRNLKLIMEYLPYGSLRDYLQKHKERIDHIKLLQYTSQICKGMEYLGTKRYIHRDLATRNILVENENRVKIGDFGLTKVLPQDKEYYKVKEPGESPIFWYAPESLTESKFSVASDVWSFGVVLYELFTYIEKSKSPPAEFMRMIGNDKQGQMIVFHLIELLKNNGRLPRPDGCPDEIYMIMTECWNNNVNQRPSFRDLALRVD

| Structure (SMILES) | IC50 (JAK1 kinase domain) [nM] | IC50 (JAK2 kinase domain) [nM] | IC50 [1] [nM] | IC50 [2] [nM] | IC50 [3] [nM] | IC50 (TYK2 kinase domain) [nM] |
| --- | --- | --- | --- | --- | --- | --- |
| CCc1ccc(Cl)cc1-c1[nH]c(-c2cc(N)ncn2)cc1C(N)=O [compd 197, 5-(6-Aminopyrimidin-4-yl)-2-(5-chloro-2-ethylphenyl)-1H-pyrrole-3-carboxamide] | 8 | 1 | > 10000 | 150 | 257 | 10 |
| CCc1ccc(C(F)(F)F)cc1-c1cc(-c2ncnc3[nH]ccc23)[nH]c1C(N)=O [compd 125, 3-[2-Ethyl-5-(trifluoromethyl)phenyl]-5-(7H-pyrrolo[2,3-d]pyrimidin-4-yl)-1H-pyrrole-2-carboxamide] | 19 | 6 | > 10000 | 300 | 1080 | 32 |
| CCc1ccc(Cl)cc1-n1cc(-c2ncnc3c2CCN3)cc1C(N)=O [compd 241, 1-(5-Chloro-2-ethylphenyl)-4-(6,7-dihydro-5H-pyrrolo[2,3-d]pyrimidin-4-yl)-1H-pyrrole-2-carboxamide] | 8 | 5 | > 10000 | 310 | 1300 | 16 |
| CCc1ccc(Cl)cc1-c1[nH]c(-c2ncnc3[nH]ccc23)cc1C(N)=O [compd 199, 2-(5-Chloro-2-ethylphenyl)-5-(7H-pyrrolo[2,3-d]pyrimidin-4-yl)-1H-pyrrole-3-carboxamide] | 7 | 1 | > 10000 | 100 | 194 | 3 |
| CCc1ccc(C(F)(F)F)cc1-c1[nH]c(-c2cc(NC)ncn2)cc1C(N)=O [compd 219, 2-[2-Ethyl-5-(trifluoromethyl)phenyl]-5-[6-(methylamino)pyrimidin-4-yl]-1H-pyrrole-3-carboxamide] | 14 | 4 | > 10000 | 270 | 392 | 46 |
| Cc1ccc(Cl)cc1-n1cc(-c2ncnc3c2CCN3)cc1C(N)=O [compd 234, 1-(5-Chloro-2-methylphenyl)-4-(6,7-dihydro-5H-pyrrolo[2,3-d]pyrimidin-4-yl)-1H-pyrrole-2-carboxamide] | 8 | 6 | > 10000 | 260 | 208 | 8 |

The next lines start with the values.

| IC50 (JAK1 kinase domain) [nM] | IC50 (JAK2 kinase domain) [nM] | IC50 [1] [nM] | IC50 [2] [nM] | IC50 [3] [nM] | IC50 (TYK2 kinase domain) [nM] | Structure (SMILES) |
| --- | --- | --- | --- | --- | --- | --- |
| 4 | 1 | 7230 | 60 | 146 | 3 | NC(=O)c1cc(-c2ncnc3[nH]ccc23)cn1-c1cc(C(F)(F)F)ccc1Cl [compd 244, 1-[2-Chloro-5-(trifluoromethyl)phenyl]-4-(7H-pyrrolo[2,3-d]pyrimidin-4-yl)-1H-pyrrole-2-carboxamide] |
| 1 | 1 | 6610 | 130 | 469 | 10 | CCc1ccc(Cl)cc1-c1[nH]c(-c2cc(NC)ncn2)cc1C(=O)NC [compd 302, 2-(5-Chloro-2-ethylphenyl)-N-methyl-5-[6-(methylamino)pyrimidin-4-yl]-1H-pyrrole-3-carboxamide] |
| 9 | 3 | > 10000 | 250 | 548 | 38 | CCc1ccc(C(F)(F)F)cc1-c1[nH]c(-c2cc(N)ncn2)cc1C(=O)NC [compd 321, 5-(6-Aminopyrimidin-4-yl)-2-[2-ethyl-5-(trifluoromethyl)phenyl]-N-methyl-1H-pyrrole-3-carboxamide] |
